Like-named read-outs stand apart in the source and are kept apart here.
Columns and labels:
CWR22RV1 cells = assay: Inhibition of proliferation of CWR22RV1 cells (CCK-8); format: cell-based, human; details: 6 days culture
In short: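 Proliferation read-out was CCK-8 absorbance at 450 nm after 2.5 h, following 6-day culture with compound. Each well held 1500 CWR22RV1 cells; the 3-fold, 9-point series started at a final 10 μM in 0.1% DMSO. Dose-response-inhibition fit gave the IC50.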

histone acetylase p300 = biological target: T1, histone acetylase p300 (Homo sapiens, UniProt Q09472); assay: Inhibitory activity on histone acetylase p300 (radioisotope FlashPlate); format: biochemical; details: enzyme 0.2 nM, peptide substrate 600 nM, [3H]-Ac-CoA 250 nM; read-out: IC50 against P300
T1 construct: purchased BPS
Text: Using the radioisotope FlashPlate technology, the half inhibitory concentration (IC50) of the compound according to the present invention was detected against histone acetylase p300 (purchased from BPS). […] Under the catalysis of histone acetylase p300, [3H]—Ac group in the isotope-labeled [3H]-Ac-CoA was transferred to the biotinylated histone polypeptide substrate (purchased from GL Biochem Ltd.), and then the biotinylated histone peptide substrate bound to the streptavidin on the FlashPlate board, so that the isotope was close enough to the FlashPlate board. Thus, the radiation energy of isotope could convert the scintillation fluid coated on the FlashPlate board into photons, that was able to be detected. Detailed procedures were as follows:
• 1× reaction buffer: 50 mM Tris-HCl, pH 7.5; 0.01% Tween-20 • Reaction stop solution: 750 μM Ac-CoA solution
Each test compound was dissolved into 10 mM with 100% DMSO, and then each compound was diluted to the desired concentration in Echo 384-well plate. […] 200 nl of 100% DMSO was transferred into the well as the negative control.
p300 was added to 1× reaction buffer to form a 2× enzyme solution (the final concentration of enzyme being 0.2 nM).
The peptide substrate and [3H]-Ac-CoA were added to the 1-fold reaction buffer, to form a 2-fold substrate solution (the final concentration of the substrate being 600 nM and 250 nM, respectively).
10 μl of 2-fold enzyme solution was added to the wells of 384-well reaction plate. […] The plate was centrifuged at 1000 rpm for 1 min and incubated at room temperature for 15 min.
10 μl of 2-fold substrate solution was added to each well of 384-well reaction plate. The plate was centrifuged at 1000 rpm for 1 min, and then reacted at 25° C. for 60 min.
10 μl of reaction stop solution was added to each well of 384-well reaction plate to stop the reaction. 25 μL solution was collected from each well of the test plate and transferred to Flashplate, that was placed at room temperature for 1 h. Then, Flashplate plate was washed three times with 0.1% Tween-20 solution.
4) Reading Data with MicroBeta 2
The data were copied from Microbeta 2. […] The maximum value is the conversion rate of the control DMSO, and the minimum value is the conversion rate of the control without enzyme activity.
The data were imported into Graph Pad Prism5, and the formula “log(inhibitor) vs. response−Variable slope” was used to perform curve fitting, to obtain the half inhibitory concentration (IC50).

[1] = Homo sapiens, CWR22Rv1, 144 h, read-out: IC50 against CWR22RV1 cells
[2] = Homo sapiens, CWR22Rv1, 144 h, read-out: IC50 against CWR22RV1 cells (text)

T1 sequence (Q09472 whole entry): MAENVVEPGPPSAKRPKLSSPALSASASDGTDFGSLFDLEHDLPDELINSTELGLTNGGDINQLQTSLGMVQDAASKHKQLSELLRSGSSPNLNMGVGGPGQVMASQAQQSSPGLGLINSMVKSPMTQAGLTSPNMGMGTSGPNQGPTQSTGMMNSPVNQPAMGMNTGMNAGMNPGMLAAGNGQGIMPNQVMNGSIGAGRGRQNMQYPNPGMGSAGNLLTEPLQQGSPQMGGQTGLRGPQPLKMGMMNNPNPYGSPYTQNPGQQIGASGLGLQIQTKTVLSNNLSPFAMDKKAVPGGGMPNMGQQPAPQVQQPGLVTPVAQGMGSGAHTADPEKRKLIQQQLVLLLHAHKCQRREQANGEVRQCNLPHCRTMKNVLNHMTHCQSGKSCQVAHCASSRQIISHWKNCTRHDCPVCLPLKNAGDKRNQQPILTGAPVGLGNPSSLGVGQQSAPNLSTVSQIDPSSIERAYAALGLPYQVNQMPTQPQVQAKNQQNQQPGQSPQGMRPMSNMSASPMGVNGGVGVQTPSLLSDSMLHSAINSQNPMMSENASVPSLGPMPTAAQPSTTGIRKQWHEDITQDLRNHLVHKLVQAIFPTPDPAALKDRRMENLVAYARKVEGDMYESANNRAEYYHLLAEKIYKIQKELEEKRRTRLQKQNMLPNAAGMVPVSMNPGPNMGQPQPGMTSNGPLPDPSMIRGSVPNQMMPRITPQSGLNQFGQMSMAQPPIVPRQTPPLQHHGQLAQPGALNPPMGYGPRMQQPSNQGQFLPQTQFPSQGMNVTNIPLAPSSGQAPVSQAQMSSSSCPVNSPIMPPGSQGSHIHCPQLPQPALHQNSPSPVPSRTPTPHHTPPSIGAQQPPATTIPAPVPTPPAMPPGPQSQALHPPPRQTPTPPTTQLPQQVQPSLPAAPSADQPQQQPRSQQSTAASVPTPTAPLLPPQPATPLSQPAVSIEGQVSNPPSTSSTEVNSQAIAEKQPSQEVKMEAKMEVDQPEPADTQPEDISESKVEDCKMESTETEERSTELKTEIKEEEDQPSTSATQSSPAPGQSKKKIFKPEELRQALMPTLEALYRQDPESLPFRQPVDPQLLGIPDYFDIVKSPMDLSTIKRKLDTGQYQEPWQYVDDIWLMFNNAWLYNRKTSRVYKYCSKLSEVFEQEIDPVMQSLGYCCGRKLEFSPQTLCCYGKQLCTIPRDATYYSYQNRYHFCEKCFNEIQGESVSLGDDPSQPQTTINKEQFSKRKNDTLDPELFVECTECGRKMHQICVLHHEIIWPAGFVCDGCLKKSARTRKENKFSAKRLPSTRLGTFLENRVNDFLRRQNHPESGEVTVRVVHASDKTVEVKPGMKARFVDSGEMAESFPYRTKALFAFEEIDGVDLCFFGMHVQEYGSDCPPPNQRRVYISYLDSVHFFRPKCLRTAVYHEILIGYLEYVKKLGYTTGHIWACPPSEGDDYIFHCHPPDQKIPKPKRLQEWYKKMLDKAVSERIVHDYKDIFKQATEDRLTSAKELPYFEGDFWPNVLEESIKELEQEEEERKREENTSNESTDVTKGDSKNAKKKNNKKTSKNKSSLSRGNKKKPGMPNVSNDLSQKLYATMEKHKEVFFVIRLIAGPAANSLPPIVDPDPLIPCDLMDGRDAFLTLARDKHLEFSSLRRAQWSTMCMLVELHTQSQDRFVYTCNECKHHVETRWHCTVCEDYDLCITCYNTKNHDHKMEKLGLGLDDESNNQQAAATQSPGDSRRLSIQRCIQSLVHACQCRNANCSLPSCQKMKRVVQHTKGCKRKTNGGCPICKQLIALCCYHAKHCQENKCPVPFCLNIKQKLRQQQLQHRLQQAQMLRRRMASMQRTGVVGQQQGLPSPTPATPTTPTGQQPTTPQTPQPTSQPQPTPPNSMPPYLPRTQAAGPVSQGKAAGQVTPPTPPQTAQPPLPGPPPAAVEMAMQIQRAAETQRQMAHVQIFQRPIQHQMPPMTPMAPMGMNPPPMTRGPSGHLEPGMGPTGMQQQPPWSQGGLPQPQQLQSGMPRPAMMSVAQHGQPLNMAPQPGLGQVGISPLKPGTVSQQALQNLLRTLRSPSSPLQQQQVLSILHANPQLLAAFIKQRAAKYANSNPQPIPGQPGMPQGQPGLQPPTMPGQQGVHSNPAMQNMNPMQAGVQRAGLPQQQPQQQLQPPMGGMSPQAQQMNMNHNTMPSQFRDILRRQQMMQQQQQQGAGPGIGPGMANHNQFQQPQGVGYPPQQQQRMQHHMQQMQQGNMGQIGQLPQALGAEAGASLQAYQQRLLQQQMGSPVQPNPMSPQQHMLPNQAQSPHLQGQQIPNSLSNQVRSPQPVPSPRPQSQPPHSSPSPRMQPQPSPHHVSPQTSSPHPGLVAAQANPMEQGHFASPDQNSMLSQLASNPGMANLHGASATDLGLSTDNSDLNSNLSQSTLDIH

Structure (SMILES)	IC50 (CWR22RV1 cells; [1]) [nM]	IC50 (CWR22RV1 cells; [2]) [nM]	IC50 (histone acetylase p300) [nM]	IC50 (CWR22RV1 cells; read-out: IC50 against CWR22RV1 cells) [nM]
CCC1CC[C@@H](C2CCC(F)(F)CC2)N1C(=O)CN1C(=O)O[C@@]2(CCc3cc(NC(=O)NC)ccc32)C1=O (stereo in doubt) [Example 212, 1-((R)-3′-(2-((2S,5R)-2-(4,4-difluorocyclohexyl)-5-ethyl-pyrrolidin-1-yl)-2-oxoethyl)-2′,4′-dioxo-2,3-dihydrospiro[indene-1,5′-oxazolidine]-5-yl)-3-methylurea]	≤ 500	≤ 500	9.3	
CNC(=O)Nc1ccc2c(c1)CC[C@@]21OC(=O)N(CC(=O)N2C(C3CC3)CC[C@H]2c2ccc(F)cc2)C1=O (stereo in doubt) [Example 380, 1-((R)-3′-(2-((2S,5S)-2-cyclopropyl-5-(4-fluorophenyl)pyrrolidin-1-yl)-2-oxoethyl)-2′,4′-dioxo-2,3-dihydrospiro[indene-1,5′-oxazolidine]-5-yl)-3-methylurea]	≤ 500	≤ 500	5.1	
CNC(=O)Nc1ccc2c(c1)CC[C@@]21OC(=O)N(CC(=O)N2[C@@H](C(C)C)CC[C@H]2c2ccc(F)cc2)C1=O [Compound 48]			4.5	
CNC(=O)Nc1ccc2c(c1)CC[C@@]21OC(=O)N(CC(=O)N2[C@@H](C)CC[C@H]2c2ccc(F)cc2)C1=O [Example 14, 1-((R)-3′-(2-((2S,5S)-2-(4-fluorophenyl)-5-methylpyrrolidin-1-yl)-2-oxoethyl)-2′,4′-dioxo2,3-dihydrospiro[indene-1,5′-oxazolidine]-5-yl)-3-methylurea]	≤ 500	≤ 500	5.7	
CNC(=O)Nc1ccc2c(c1)CC[C@@]21OC(=O)N(CC(=O)N2[C@H](C)CC[C@@H]2c2ccc(F)cc2)C1=O [Example 17, 1-((R)-3′-(2-((2R,5R)-2-(4-fluorophenyl)-5-methylpyrrolidin-1-yl)-2-oxoethyl)-2′,4′-dioxo-2,3-dihydrospiro[indene-1,5′-oxazolidine]-5-yl)-3-methylurea]	> 2000		3600	
CNC(=O)Nc1ccc2c(c1)CC[C@@]21OC(=O)N(CC(=O)N2C(c3ccc(F)cc3C)CC[C@H]2C)C1=O (some centres unmarked) [Example 21]			17	≤ 500
CC[C@H]1CC[C@@H](c2ccc(F)cc2)N1C(=O)CN1C(=O)O[C@@]2(CCc3cc(NC(=O)NC)ccc32)C1=O [Example 43, 1-((R)-3′-(2-((2S,5S)-2-ethyl-5-(4-fluorophenyl)pyrrolidin-1-yl)-2-oxoethyl)-2′,4′-dioxo-2,3-dihydrospiro[indene-1,5′-oxazolidine]-5-yl)-3-methylurea]	≤ 500	≤ 500	3.1	
CNC(=O)Nc1ccc2c(c1)CC[C@@]21OC(=O)N(CC(=O)N2C(C)CCC2C2CCCCC2)C1=O (stereo partly drawn) [Example 96, 1-((1R)-3′-(2-(2-cyclohexyl-5-methylpyrrolidin-1-yl)-2-oxoethyl)-2′,4′-dioxo-2,3-dihydrospiro[indene-1,5′-oxazolidine]-5-yl)-3-methylurea]	≤ 500		7.5	
CNC(=O)Nc1ccc2c(c1)C1(CC1)CC21OC(=O)N(CC(=O)N(Cc2ccc(F)cc2)[C@@H](C)C(F)(F)F)C1=O (stereo partly drawn) [Example 98, 2-(5-(3-methylureido)-2′,4′-dioxo-2,3-dihydrospiro[cyclopropane-indene-1,5′-oxazole]-3′-yl)-N-(4-fluorobenzyl)-N—((S)-1,1,1-trifluoropropan-2-yl)acetamide]	500 to 2000		26	
CNC(=O)Nc1ccc2c(c1)CC[C@@]21OC(=O)N(CC(=O)N2[C@H](CN3CCC4(CC3)CC4(F)F)CC[C@@H]2C)C1=O [Example 379, 1-((R)-3′-(2-((2S,5S)-2-((1,1-difluoro-6-aza-spiro[2.5]octan-6-yl)methyl)-5-methylpyrrolidin-1-yl)-2-oxoethyl)-2′,4′-dioxo-2,3-dihydrospiro[indene-1,5′-oxazolidine]-5-yl)-3-methylurea]	> 2000			
CNC(=O)Nc1ccc2c(c1F)CC[C@]21OC(=O)N(CC(=O)N2[C@@H](C)CC[C@H]2c2ccc(F)c(F)c2)C1=O [Example 381, 1-((S)-3′-(2-((2S,5S)-2-(3,4-difluorophenyl)-5-methylpyrrolidin-1-yl)-2-oxoethyl)-4-fluoro-2′,4′-dioxo-2,3-dihydrospiro[indene-1,5′-oxazolidine]-5-yl)-3-methylurea]	> 2000			
CNC(=O)Nc1ccc2c(c1F)CC[C@]21OC(=O)N(CC(=O)N2[C@@H](C)CC[C@H]2c2cc(F)c(F)c(F)c2)C1=O [Example 382, 1-((S)-4-fluoro-3′-(2-((2S,5S)-2-methyl-5-(3,4,5-trifluorophenyl)pyrrolidin-1-yl)-2-oxoethyl)-2′,4′-dioxo-2,3-dihydrospiro[indene-1,5′-oxazolidine]-5-yl)-3-methylurea]	> 2000			
CNC(=O)Nc1ccc2c(c1F)CC[C@@]21OC(=O)N(CC(=O)N2[C@@H](C)CC[C@H]2c2ccc(F)c(F)c2)C1=O [Example 383, 1-((R)-3′-(2-((2S,5S)-2-(3,4-difluorophenyl)-5-methylpyrrolidin-1-yl)-2-oxoethyl)-4-fluoro-2′,4′-dioxo-2,3-dihydrospiro[indene-1,5′-oxazolidine]-5-yl)-3-methylurea]	> 2000			
CNC(=O)Nc1ccc2c(c1F)CC[C@@]21OC(=O)N(CC(=O)N2[C@@H](C)CC[C@H]2c2cc(F)c(F)c(F)c2)C1=O [Example 384, 1-((R)-4-fluoro-3′-(2-((2S,5S)-2-methyl-5-(3,4,5-trifluorophenyl)pyrrolidin-1-yl)-2-oxoethyl)-2′,4′-dioxo-2,3-dihydrospiro[indene-1,5′-oxazolidine]-5-yl)-3-methylurea]	> 2000			
CNC(=O)Nc1cc(F)c2c(c1)CC[C@]21OC(=O)N(CC(=O)N2[C@@H](C)CC[C@H]2c2ccc(F)c(F)c2)C1=O [Example 385, 1-((S)-3′-(2-((2S,5S)-2-(3,4-difluorophenyl)-5-methylpyrrolidin-1-yl)-2-oxoethyl)-7-fluoro-2′,4′-dioxo-2,3-dihydrospiro[indene-1,5′-oxazolidine]-5-yl)-3-methylurea]	> 2000			
CNC(=O)Nc1cc(F)c2c(c1)CC[C@]21OC(=O)N(CC(=O)N2[C@@H](C)CC[C@H]2c2cc(F)c(F)c(F)c2)C1=O [Example 386, 1-((S)-7-fluoro-3′-(2-((2S,5S)-2-methyl-5-(3,4,5-trifluorophenyl)pyrrolidin-1-yl)-2-oxoethyl)-2′,4′-dioxo-2,3-dihydrospiro[indene-1,5′-oxazolidine]-5-yl)-3-methylurea]	> 2000			
CNC(=O)Nc1cc(F)c2c(c1)CC[C@@]21OC(=O)N(CC(=O)N2[C@@H](C)CC[C@H]2c2ccc(F)c(F)c2)C1=O [Example 387, 1-((R)-3′-(2-((2S,5S)-2-(3,4-difluorophenyl)-5-methylpyrrolidin-1-yl)-2-oxoethyl)-7-fluoro-2′,4′-dioxo-2,3-dihydrospiro[indene-1,5′-oxazolidine]-5-yl)-3-methylurea]	500 to 2000			
CNC(=O)Nc1cc(F)c2c(c1)CC[C@@]21OC(=O)N(CC(=O)N2[C@@H](C)CC[C@H]2c2cc(F)c(F)c(F)c2)C1=O [Example 388]	> 2000			
CNC(=O)Nc1cc2c(cc1F)[C@]1(CC2)OC(=O)N(CC(=O)N2[C@@H](C)CC[C@H]2c2ccc(F)c(F)c2)C1=O [Example 391, 1-((S)-3′-(2-((2S,5S)-2-(3,4-difluorophenyl)-5-methylpyrrolidin-1-yl)-2-oxoethyl)-6-fluoro-2′,4′-dioxo-2,3-dihydrospiro[indene-1,5′-oxazolidine]-5-yl)-3-methylurea]	> 2000			
CNC(=O)Nc1cc2c(cc1F)[C@]1(CC2)OC(=O)N(CC(=O)N2[C@@H](C)CC[C@H]2c2cc(F)c(F)c(F)c2)C1=O [Example 392]	500 to 2000			
CNC(=O)Nc1ccc2c(c1)CC[C@@]21OC(=O)N(CC(=O)N2CCC[C@H]2c2ccccc2OC)C1=O [compound 339]	> 2000			
CCc1cc(F)ccc1C1CCC(C)N1C(=O)CN1C(=O)O[C@@]2(CCc3cc(NC(=O)NC)ccc32)C1=O (some centres unmarked) [compound 358]	500 to 2000			
C[C@H]1CC[C@@H](c2ccc(F)cc2)N1C(=O)CN1C(=O)O[C@@]2(CCc3cc(N)ccc32)C1=O [compound 372]	> 2000			
